Results from BindingDB's records for PubMed 30282319 (Polytechnic Institute of Braganca, 2018).
Values after ≈ are worked out from the molar mass of the structure shown.

Biological target: alpha-glucosidase (Saccharomyces cerevisiae)
Experiment: Inhibition of Saccharomyces cerevisiae alpha-glucosidase assessed as release of p-nitrophenol using pNPG as substrate preincubated for 15 mins followed by substrate addition and measured after 15 mins by plate reader analysis

| Compound | IC50 |
| --- | --- |
| COc1cc(OC)c2c(=O)c3c(O)c(OC)ccc3oc2c1O | 59 µg/mL (≈ 185 µM) |
| O=c1c2cc(O)ccc2oc2cc(O)cc(O)c12 [1,3,7-trihydroxy-9H-xanthen-9-one] | 3.2 µg/mL (≈ 13.1 µM) |
| COc1c(O)cc2oc3ccc(O)cc3c(=O)c2c1O | 7.6 µg/mL (≈ 27.7 µM) |
| COc1ccc2oc3ccc(O)cc3c(=O)c2c1 | 77 µg/mL (≈ 318 µM) |
| COc1c(O)cc2oc3ccc(O)c(OC)c3c(=O)c2c1O | 63 µg/mL (≈ 207 µM) |
| O=c1c2cc(O)ccc2oc2cccc(O)c12 [CHEBI:4946] | 36 µg/mL (≈ 158 µM) |

Results, then the molecule that gave them:

| IC50 | Compound |
| --- | --- |
| 28 µg/mL (≈ 108 µM) | COc1ccc(O)c2c(=O)c3cc(O)ccc3oc12 [CHEBI:67553] |
| 13 µg/mL (≈ 45.1 µM) | COc1cc(O)c2c(=O)c3cc(O)ccc3oc2c1OC |
| 49 µg/mL (≈ 180 µM) | COc1ccc2oc3ccc(O)cc3c(=O)c2c1OC |
| 13 µg/mL (≈ 47.4 µM) | COc1c(O)cc(O)c2c(=O)c3cc(O)ccc3oc12 |
